According to ChEMBL document CHEMBL1201862, “PubChem BioAssay data set” (2004):
Active and inactive are the calls of the source.

Legend:
[1] = microbe, parasite or virus in culture; format: functional; settings: Mycobacterium tuberculosis
[2] = THP-1 cell cytotoxicity, dose response, cytotoxicity control for Vif-APOBEC3G degradation inhibitor project, THP-1 cells (AID 1117359); format: functional; settings: Human immunodeficiency virus 1, THP-1
Estrogen receptor beta = Estrogen receptor beta (Homo sapiens, UniProt Q92731);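 note: recombinant ER-beta bound to coactivator SRC1 peptide in presence of estradiol agonist; inhibitors block coactivator peptide binding and lower the FRET signal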
Beta Lactamase = Beta Lactamase (Pseudomonas aeruginosa, UniProt Q932Y6); test: beta-lactamase reporter inhibitor potency, dose response, artefact control for TLR9-MyD88 binding inhibitor project, BLA reporter cells, FRET fluorescence (AID 588341); format: cell-based;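 note: cell based assay in CHO-K1 cells stably expressing beta-lactamase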
CHO = test: cytotoxicity in TLR9-MyD88 CHO cells, dose response, cytotoxicity control for TLR9-MyD88 binding inhibitor project, cell-based, luminescence (AID 588339); format: functional, hamster; settings: Cricetulus griseus;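 note: CHO cells stably coexpressing TLR9 and MyD88 fusions from primary screen; compound exposure lasted 48 hours before viability readout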
Genome polyprotein = Genome polyprotein (dengue virus type 2, UniProt P29990); test: Dengue-2 NS5 methyltransferase inhibitors, primary screen, biochemical, confirmation dose response (AID 588689); format: functional
[3] = intracellular Trypanosoma cruzi inhibitors in host cells – cell-based, plate reader, cherry-pick samples, set 3, dose response (AID 651818); format: functional;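 note: compounds incubated with infected cells for about four days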
[4] = THP-1 cell cytotoxicity, dose response, cytotoxicity control for non-replicating M. tuberculosis project (AID 489025); format: functional
[5] = cytotoxicity toward NIH3T3 fibroblasts, dose response, counter-screen, cell-based, ATP luminescence, mouse fibroblasts (AID 2010); format: functional;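 note: cells exposed to compound for about 90 hours before reading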
cells = format: functional
[6] = inhibitors of intracellular T. cruzi replication, confirmation, NIH3T3 host cells, beta-gal luminescence (AID 2044); format: functional, cell-based;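 note: intracellular parasites grown in NIH/3T3 mouse fibroblasts as host cells; luminescent beta-galactosidase reporter signal from transgenic T. cruzi replicating inside host cells; inhibitors lower the luminescence signal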
Cytochrome P450 2C9 = Cytochrome P450 2C9 (Homo sapiens, UniProt P11712)
Cytochrome P450 2C19 = Cytochrome P450 2C19 (Homo sapiens, UniProt P33261); test: Cytochrome panel assay with activity outcomes. Panel member name: p450-cyp2c19 Compounds with AC50 equal or less than 10 uM are considered active; format: functional
Leucine aminopeptidase = target: T1, Leucine aminopeptidase (Plasmodium falciparum 3D7, UniProt Q8IL11); test: P. falciparum M17LAP inhibitors, primary screen, biochemical, fluorogenic H-Leu-NHMec substrate, 1536-well (AID 1619); format: functional
T1 sequence (Q8IL11 whole entry): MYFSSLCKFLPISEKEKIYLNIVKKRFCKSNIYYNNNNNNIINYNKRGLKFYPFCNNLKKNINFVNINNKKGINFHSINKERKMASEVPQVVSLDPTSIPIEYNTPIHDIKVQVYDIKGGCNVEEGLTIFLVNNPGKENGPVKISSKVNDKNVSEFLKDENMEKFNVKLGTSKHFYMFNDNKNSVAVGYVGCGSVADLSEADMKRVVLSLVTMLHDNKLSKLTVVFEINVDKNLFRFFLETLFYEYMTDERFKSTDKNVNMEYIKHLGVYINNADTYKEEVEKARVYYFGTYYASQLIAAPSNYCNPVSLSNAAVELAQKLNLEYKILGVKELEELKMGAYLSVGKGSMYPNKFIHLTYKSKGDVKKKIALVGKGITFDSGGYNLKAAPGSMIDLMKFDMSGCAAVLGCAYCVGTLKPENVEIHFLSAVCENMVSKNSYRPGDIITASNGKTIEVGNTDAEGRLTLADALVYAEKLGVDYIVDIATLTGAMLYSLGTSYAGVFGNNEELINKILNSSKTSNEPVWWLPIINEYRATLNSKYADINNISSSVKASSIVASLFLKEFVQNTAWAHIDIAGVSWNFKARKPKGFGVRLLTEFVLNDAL

Cytochrome P450 3A4 = Cytochrome P450 3A4 (Homo sapiens, UniProt P08684);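 note: CYP3A4 tested as one member of a cytochrome P450 panel screen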
[7] = target: T2, Corticotropin-releasing factor receptor 2/Corticotropin-releasing factor-binding protein (Homo sapiens, UniProt P24387+Q13324); test: activators of CRF receptor 2 with binding protein – uHTS hits, confirmation (AID 602473); format: functional; settings: read-out: EC50_Mean
T2 sequence (Q13324 whole entry): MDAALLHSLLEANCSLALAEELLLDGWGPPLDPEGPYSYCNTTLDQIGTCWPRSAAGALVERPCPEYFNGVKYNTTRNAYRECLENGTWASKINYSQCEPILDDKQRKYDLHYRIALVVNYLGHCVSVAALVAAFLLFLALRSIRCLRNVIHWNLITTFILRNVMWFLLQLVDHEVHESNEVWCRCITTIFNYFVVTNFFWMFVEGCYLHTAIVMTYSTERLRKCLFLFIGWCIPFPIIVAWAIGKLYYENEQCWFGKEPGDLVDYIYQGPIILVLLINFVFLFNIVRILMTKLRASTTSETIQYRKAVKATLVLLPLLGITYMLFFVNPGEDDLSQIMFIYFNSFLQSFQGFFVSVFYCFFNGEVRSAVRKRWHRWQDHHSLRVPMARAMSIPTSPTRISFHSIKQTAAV
T2 sequence (P24387 whole entry): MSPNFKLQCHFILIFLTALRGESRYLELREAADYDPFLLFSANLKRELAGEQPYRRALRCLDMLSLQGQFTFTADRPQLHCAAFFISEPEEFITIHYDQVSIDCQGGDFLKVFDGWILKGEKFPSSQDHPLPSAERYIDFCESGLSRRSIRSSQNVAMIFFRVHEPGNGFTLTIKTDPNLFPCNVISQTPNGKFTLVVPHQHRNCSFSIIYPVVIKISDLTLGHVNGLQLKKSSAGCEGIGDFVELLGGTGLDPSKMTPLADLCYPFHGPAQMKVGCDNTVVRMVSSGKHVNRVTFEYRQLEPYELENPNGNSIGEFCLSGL

[8] = target: T3, Polyadenylate-binding protein 1 (Homo sapiens, UniProt P11940); test: PABP1 MLLE–PAM2 interaction inhibitors, dose response, miRNA deadenylation inhibitor project, biochemical, fluorescence polarization, Cy5-PAM2 peptide, secondary (AID 602260); format: functional; settings: read-out: IC50_Mean
[9] = target: T3, Polyadenylate-binding protein 1; test: PABP1 MLLE–PAM2 binding inhibitor potency, dose response, biochemical, fluorescence polarization, FITC-PAM2 peptide (AID 602259); format: functional; settings: read-out: IC50_Mean
[10] = target: Glyceraldehyde-3-phosphate dehydrogenase (Homo sapiens, UniProt P04406)
Protein RecA = target: T4, Protein RecA (Mycobacterium tuberculosis, UniProt P9WHJ3); test: Fluorescence Cell-Free Homogeneous Dose Retest to Identify Inhibitors of RecA-Intein Splicing Activity. [Related pubchem assays (depositor defined):AID2097, AID2223, AID489010, AID492950]; format: functional
T4 sequence (P9WHJ3 whole entry): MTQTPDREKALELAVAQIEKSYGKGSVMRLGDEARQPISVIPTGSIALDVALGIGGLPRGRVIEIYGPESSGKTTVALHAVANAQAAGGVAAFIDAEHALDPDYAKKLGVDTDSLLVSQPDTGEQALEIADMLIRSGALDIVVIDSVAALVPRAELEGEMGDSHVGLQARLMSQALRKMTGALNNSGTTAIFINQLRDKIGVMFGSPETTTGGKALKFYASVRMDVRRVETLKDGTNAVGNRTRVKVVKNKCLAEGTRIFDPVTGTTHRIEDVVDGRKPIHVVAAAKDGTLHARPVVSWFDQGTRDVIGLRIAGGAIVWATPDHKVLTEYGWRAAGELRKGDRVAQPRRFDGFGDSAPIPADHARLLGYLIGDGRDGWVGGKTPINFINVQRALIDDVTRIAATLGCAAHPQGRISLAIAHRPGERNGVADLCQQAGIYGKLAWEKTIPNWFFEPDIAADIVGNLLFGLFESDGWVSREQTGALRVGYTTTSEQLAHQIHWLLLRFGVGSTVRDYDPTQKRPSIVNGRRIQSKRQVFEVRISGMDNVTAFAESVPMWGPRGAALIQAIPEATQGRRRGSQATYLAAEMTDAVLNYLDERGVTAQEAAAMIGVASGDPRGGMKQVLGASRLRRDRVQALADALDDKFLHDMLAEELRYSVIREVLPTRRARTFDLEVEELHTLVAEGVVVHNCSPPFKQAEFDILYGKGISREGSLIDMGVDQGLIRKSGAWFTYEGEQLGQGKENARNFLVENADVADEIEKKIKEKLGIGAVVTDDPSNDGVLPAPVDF

[11] = target: T5, Replicative DNA helicase DnaB (Mycobacterium tuberculosis, UniProt P9WMR3); test: DnaB intein splicing inhibitors, dose response, biochemical, cell-free fluorescence (AID 449749); format: functional
T5 sequence (P9WMR3 whole entry): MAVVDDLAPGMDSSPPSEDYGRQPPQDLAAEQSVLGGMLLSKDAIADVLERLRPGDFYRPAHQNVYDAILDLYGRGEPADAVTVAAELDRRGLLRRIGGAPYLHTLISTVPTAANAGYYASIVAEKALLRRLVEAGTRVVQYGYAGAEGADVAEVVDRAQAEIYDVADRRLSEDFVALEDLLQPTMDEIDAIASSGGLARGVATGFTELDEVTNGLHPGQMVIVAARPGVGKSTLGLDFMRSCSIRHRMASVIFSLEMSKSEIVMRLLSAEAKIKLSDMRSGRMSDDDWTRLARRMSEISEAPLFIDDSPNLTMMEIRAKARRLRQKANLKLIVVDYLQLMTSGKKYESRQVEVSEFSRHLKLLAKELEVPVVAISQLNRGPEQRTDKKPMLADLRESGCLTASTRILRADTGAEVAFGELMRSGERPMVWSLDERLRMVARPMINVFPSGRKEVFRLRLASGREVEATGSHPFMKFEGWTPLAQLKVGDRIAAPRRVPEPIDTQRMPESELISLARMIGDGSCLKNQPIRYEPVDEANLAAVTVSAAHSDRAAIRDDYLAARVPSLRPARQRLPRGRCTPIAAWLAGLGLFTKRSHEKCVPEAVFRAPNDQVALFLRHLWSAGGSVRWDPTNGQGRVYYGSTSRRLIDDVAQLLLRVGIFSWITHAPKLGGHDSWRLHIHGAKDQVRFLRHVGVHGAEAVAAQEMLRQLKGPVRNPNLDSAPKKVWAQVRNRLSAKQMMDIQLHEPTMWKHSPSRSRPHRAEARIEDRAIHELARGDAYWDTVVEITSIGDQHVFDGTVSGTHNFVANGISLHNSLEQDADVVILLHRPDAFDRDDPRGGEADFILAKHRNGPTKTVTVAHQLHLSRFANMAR

Sequence of Glyceraldehyde-3-phosphate dehydrogenase (P04406 whole entry): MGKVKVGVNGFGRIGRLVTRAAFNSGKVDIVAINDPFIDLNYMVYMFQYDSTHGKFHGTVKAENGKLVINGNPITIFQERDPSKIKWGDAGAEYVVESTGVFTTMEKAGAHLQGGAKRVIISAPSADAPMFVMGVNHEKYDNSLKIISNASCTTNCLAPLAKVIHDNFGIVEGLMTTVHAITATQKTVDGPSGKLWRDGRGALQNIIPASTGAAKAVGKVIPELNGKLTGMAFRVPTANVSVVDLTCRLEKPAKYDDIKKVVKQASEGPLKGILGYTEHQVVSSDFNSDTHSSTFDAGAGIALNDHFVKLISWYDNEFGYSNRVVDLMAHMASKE
T3 sequence (P11940 whole entry): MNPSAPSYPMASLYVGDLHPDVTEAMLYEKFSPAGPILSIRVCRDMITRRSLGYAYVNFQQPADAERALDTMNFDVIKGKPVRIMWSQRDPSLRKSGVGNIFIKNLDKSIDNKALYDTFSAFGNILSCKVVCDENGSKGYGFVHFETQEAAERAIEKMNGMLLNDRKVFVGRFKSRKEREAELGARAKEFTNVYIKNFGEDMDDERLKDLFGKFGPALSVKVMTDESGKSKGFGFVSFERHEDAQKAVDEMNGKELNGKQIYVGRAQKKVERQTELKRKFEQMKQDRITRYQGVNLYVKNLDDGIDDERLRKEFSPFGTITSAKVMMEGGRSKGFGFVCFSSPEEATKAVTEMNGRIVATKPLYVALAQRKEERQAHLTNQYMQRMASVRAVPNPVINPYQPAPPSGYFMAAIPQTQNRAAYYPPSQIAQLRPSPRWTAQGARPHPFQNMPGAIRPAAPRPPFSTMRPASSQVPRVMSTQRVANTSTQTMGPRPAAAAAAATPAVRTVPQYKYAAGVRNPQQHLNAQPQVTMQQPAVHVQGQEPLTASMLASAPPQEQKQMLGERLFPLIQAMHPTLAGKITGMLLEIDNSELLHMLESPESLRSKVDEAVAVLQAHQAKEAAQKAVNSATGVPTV
Sequence of Estrogen receptor beta (Q92731 whole entry): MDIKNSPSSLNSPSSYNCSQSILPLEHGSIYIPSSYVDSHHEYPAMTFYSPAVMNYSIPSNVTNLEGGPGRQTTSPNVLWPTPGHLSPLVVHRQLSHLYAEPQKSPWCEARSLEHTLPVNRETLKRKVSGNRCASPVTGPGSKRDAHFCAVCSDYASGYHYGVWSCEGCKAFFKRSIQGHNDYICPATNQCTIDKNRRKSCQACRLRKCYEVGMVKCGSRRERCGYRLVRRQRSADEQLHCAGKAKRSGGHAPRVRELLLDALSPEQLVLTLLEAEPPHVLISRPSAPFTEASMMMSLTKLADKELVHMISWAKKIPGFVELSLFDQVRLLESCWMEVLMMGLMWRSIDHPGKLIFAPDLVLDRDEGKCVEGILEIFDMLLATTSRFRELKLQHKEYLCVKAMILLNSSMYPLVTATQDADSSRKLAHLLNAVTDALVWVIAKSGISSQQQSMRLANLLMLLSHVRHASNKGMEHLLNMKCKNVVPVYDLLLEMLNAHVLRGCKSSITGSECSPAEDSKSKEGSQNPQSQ
Sequence of Cytochrome P450 3A4 (P08684 whole entry): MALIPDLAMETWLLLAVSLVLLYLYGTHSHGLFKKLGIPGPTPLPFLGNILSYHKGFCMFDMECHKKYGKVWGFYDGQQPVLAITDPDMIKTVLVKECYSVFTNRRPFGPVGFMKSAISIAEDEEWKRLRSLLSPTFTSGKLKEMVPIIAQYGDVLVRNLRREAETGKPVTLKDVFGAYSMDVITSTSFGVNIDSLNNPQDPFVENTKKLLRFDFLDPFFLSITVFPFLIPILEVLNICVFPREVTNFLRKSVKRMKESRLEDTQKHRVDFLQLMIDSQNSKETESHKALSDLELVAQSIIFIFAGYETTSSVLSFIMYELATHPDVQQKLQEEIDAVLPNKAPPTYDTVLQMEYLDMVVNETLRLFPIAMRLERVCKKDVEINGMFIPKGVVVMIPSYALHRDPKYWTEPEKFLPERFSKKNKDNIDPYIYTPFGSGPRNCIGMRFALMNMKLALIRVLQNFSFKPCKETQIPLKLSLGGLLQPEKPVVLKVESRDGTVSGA
Sequence of Genome polyprotein (P29990 2492-3391 limits assumed): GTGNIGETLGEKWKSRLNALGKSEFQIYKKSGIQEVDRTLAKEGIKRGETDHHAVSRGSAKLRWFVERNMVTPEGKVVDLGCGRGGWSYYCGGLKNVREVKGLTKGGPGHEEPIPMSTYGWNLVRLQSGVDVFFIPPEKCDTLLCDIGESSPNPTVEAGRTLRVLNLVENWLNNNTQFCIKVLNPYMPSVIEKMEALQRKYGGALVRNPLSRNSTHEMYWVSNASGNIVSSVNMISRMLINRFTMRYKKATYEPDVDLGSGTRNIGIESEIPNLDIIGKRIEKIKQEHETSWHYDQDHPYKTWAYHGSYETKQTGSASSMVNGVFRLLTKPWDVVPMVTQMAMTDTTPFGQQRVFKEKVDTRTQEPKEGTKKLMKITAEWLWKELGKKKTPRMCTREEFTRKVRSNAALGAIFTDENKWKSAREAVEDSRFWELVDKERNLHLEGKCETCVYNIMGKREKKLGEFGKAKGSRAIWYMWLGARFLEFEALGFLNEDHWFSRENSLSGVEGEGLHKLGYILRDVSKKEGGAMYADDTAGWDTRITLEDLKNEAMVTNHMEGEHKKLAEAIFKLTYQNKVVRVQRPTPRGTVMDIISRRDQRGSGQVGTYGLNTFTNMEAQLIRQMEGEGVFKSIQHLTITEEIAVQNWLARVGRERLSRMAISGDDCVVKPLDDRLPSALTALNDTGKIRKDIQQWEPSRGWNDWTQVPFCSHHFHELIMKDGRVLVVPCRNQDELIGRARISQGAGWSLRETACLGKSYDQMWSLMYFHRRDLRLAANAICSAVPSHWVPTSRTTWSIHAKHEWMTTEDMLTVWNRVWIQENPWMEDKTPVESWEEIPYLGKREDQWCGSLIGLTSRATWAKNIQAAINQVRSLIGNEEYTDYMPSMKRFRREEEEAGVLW
Sequence of Cytochrome P450 2C9 (P11712 whole entry): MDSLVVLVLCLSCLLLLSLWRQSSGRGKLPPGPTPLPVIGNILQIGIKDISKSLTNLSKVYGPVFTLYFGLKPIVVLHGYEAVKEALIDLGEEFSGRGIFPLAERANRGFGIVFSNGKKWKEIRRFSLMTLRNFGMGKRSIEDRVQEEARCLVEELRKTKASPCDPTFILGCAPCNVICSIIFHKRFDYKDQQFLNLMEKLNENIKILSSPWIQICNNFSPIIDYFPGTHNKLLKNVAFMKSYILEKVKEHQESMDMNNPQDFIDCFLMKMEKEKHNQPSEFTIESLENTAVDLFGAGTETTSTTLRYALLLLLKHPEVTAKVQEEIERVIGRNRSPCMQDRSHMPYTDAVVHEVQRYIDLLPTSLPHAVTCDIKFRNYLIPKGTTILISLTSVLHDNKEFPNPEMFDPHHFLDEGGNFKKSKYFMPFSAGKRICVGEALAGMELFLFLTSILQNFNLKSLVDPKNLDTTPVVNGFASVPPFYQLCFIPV
Sequence of Beta Lactamase (Q932Y6 whole entry, the tested form may be a part): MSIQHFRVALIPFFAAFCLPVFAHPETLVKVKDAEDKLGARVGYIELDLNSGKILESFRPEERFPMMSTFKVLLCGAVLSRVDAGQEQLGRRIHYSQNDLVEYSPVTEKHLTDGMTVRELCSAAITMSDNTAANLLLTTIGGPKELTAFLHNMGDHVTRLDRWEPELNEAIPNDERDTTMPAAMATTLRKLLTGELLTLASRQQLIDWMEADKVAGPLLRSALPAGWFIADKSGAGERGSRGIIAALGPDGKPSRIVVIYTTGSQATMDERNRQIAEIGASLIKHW
Sequence of Cytochrome P450 2C19 (P33261 whole entry): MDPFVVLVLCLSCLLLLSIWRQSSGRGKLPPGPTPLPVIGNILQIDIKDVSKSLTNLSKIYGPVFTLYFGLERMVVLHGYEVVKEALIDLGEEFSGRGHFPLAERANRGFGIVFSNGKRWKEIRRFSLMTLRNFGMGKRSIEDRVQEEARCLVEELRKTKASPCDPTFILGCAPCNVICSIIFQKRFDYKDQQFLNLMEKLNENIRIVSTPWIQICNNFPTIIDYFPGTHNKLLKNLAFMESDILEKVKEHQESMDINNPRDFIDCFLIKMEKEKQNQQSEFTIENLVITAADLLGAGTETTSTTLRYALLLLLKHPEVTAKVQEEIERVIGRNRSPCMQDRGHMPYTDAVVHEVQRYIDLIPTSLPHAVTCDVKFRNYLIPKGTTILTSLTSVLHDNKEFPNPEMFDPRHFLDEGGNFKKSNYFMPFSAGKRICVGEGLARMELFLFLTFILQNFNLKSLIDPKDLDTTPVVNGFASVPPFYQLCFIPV

## Cc1ccc(S(=O)(=O)NC(CC(C)C)C(=O)N2CCN(C/C=C/c3ccccc3)CC2)cc1 (stereo not given)
[1]
  CC50: > 40 µM (active)
[2]
  CC50: > 40 µM (active)

## N#Cc1cc2c(=O)n3ccccc3nc2n(CCCn2ccnc2)c1=N
Estrogen receptor beta
  IC50: > 50 µM (not active)

## COc1ccc(CCN(C)C(=O)COC(=O)/C=C/c2ccc(C)o2)cc1OC
[2]
  CC50: > 40 µM (active)

## COc1ccc(OC)c(C=Cc2ccc([N+](=O)[O-])cc2)c1
Beta Lactamase
  IC50: 8.19 µM (active)
CHO
  IC50: > 49.7 µM (inactive)

## O=C(O)c1cc([N+](=O)[O-])c(Nc2cccc3ccccc23)c([N+](=O)[O-])c1
Genome polyprotein
  IC50: 64.7 µM (active)

## C[C@H]1CN([C@@H](C)CO)C(=O)c2cccc(NC(=O)Nc3cccc4ccccc34)c2O[C@H]1CN(C)Cc1ccc(C(F)(F)F)cc1
[3]
  AC50: 2.85 µM (active)

## Cc1cc(C)n(CC(=O)N/N=C/c2ccc([N+](=O)[O-])s2)n1
[4]
  CC50: > 40 µM (active)
[5]
  EC50: > 60 µM (not active)
cells
  IC50: 48.5 µM (active)
[6]
  EC50: 0.845 µM (active)

## COc1ccc(-n2c(SC)nc(O)c(Cc3ccccc3)c2=O)cc1
Cytochrome P450 2C9
  AC50: 12.6 µM (inconclusive)
Cytochrome P450 2C19
  AC50: 7.94 µM (inconclusive)
Leucine aminopeptidase
  IC50: 46 µM (active)
Cytochrome P450 3A4
  AC50: 22.4 µM (inconclusive)

## COC(=O)c1scc2c(O)cc(C(F)(F)F)nc12
[7]
  EC50: 5.75 µM (active)
[8]
  IC50: > 66 µM (inactive)
[9]
  IC50: 35.7 µM (inactive)

## O=C(O)CCCCC(=O)c1ccc(CC(=O)O)s1
[10]
  IC50: > 100 µM (not active)

## O=C(NNC(=O)C1CC2CCC1C2)c1sc2ccccc2c1Cl (stereo not given)
Leucine aminopeptidase
  IC50: 68.1 µM (active)

## CS(=O)(=O)c1cccc(C(=O)Nc2nnc(C3=COCCO3)o2)c1
[8]
  IC50: > 66 µM (inactive)
[9]
  IC50: > 66 µM (inactive)

## CCOc1ccc(C(=O)CN2CCN(S(=O)(=O)c3ccc(OC)cc3)CC2)cc1
Leucine aminopeptidase
  IC50: 73.5 µM (active)

## COc1cccc(/C=C2\SC(N)=NC2=O)c1OS(=O)(=O)c1ccccc1
[2]
  CC50: > 40 µM (active)

## CC1(C(=O)O)CC(C)(C(=O)O)CC(C)(C(=O)O)C1 (stereo not given)
Leucine aminopeptidase
  IC50: 58.7 µM (active)

## COc1ccccc1-c1c(C)nn2c(O)c(Cc3ccccc3)c(C)nc12
[2]
  CC50: > 40 µM (active)

## C[C@H](CO)N1C[C@H](C)[C@@H](CN(C)CC2CC2)Oc2c(NC(=O)CCCCCC(=O)Nc3ccccc3N)cccc2C1=O
[3]
  AC50: 2.88 µM (active)

## CCC(=O)NC(=S)Nc1c(C)cc(Br)cc1C
[8]
  IC50: > 66 µM (inactive)
[9]
  IC50: > 66 µM (inactive)

## C[C@@H]1CCCCO[C@@H](CN(C)CC2CCCCC2)[C@@H](C)CN([C@H](C)CO)C(=O)c2cc(NC(=O)Nc3ccc(C(F)(F)F)cc3)ccc2O1
[3]
  AC50: 1.63 µM (active)

## O=C1NC(=S)N/C1=C\c1ccc(-c2cc([N+](=O)[O-])ccc2Br)o1
[10]
  IC50: > 100 µM (not active)

## C[C@@H]1CN([C@H](C)CO)C(=O)c2cccc(NC(=O)CCCCCC(=O)Nc3ccccc3N)c2O[C@@H]1CN(C)S(=O)(=O)c1ccc(F)cc1
[3]
  AC50: 3.66 µM (active)

## Clc1ccc(-c2nc3cnccn3c2Nc2ccc3c(c2)OCO3)cc1
[2]
  CC50: 19.9 µM (active)

## O=C1C(Cl)=C(N2CCN(CCO)CC2)C(=O)N1c1cccc(C(F)(F)F)c1
[10]
  IC50: > 50 µM (inconclusive)

## C[C@H](CO)N1C[C@H](C)[C@H](CN(C)Cc2ccc(Cl)c(Cl)c2)Oc2c(NC(=O)Nc3ccc4c(c3)OCO4)cccc2C1=O
[3]
  AC50: 2.61 µM (active)

## Cc1[nH]n(-c2ccccc2)c(=O)c1Sc1ccc(Cl)cc1
Protein RecA
  EC50: 4.68 µM (active)
Leucine aminopeptidase
  IC50: 37.4 µM (active)
Estrogen receptor beta
  IC50: > 50 µM (not active)
[11]
  AC50: 12.2 µM (active)
